According to patent US7414041B2 (Trustees Of Tufts College, priority 1991, dated 2008):
≈ marks a conversion by molar mass, not a printed value. Read-outs that look alike come from different tables or passages of the source.

Experiments:
S. aureus Tc^r (RN4250) = assay type: cell-based; settings: Tc^r RN4250
S. aureus Tc^s (RN450) = test: susceptibility testing MIC/MLC, drug alone; assay type: cell-based
[1] = test system: E. coli Tc^s (MI 300-225); test: susceptibility testing MIC/MLC, drug alone; assay type: cell-based
[2] = test system: E. coli Class A Tc^r (DI-299); assay type: cell-based
[3] = test system: E. faecalis Tc^r (M) (ATCC9790r/Tet M); assay type: cell-based
efflux protein = molecular target: T1, efflux protein (Escherichia coli, UniProt P02980); test: everted membrane vesicle assay, blocking activity of 13-S-derivatives (Ki); assay type: biochemical
T1 sequence (P02980 1-401): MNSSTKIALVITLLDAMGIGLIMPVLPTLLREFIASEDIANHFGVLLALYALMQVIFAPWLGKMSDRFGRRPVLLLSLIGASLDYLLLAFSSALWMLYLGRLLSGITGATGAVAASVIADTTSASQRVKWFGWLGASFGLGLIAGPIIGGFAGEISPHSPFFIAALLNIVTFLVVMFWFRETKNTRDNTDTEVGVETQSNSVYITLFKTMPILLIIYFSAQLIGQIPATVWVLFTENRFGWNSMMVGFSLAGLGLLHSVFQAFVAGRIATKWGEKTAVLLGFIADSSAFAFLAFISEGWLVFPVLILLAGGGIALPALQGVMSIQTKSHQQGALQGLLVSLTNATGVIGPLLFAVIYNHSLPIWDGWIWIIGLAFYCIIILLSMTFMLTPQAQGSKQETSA

[4] = test system: E. coli Class β Tc^r (DI-209); assay type: cell-based
[5] = test system: E. faecalis Tc^s (ATCC9790r); test: susceptibility testing MIC/MLC, drug alone; assay type: cell-based
[6] = test system: E. faecalis Tc^r (L) (ATCC9790r/Tet L); assay type: cell-based; settings: Tc^r (L)

CCSCC1c2cccc(O)c2C(=O)C2=C(O)C3(O)C(=O)C(C(N)=O)=C(O)C(N(C)C)C3CC21 (stereo not drawn) [Ethyl, 6-deoxy-13-(ethylmercapto) tetracycline]
MIC (S. aureus Tc^r (RN4250)): 5 ± 2 µg
MLC (S. aureus Tc^r (RN4250); kills 99.9%): 30 ± 10 µg
MIC (S. aureus Tc^s (RN450)): 0.5 ± 0.25 µg
MLC (S. aureus Tc^s (RN450); kills 99.9%): 4 µg
MIC ([1]; Tc^s, 1st column): 6 ± 0.26 µg
MIC ([1]; Tc^s, 2nd column): 60 µg
MIC ([1]; susceptible E. coli): 5 µg/mL (≈ 10.2 µM)
MIC ([2]; 1st column): 14 ± 4 µg
MIC ([2]; 2nd column): 46 ± 6 µg
MIC ([3]; 1st column): 25 ± 6 µg
MIC ([3]; 2nd column): >200 µg
Ki (efflux protein): 0.4 µg/mL (≈ 0.819 µM)
MIC ([4]; 1st column): 36 ± 16 µg
MIC ([4]; 2nd column): 60 ± 10 µg
MIC ([5]; 1st column): 1 ± 0.6 µg
MIC ([5]; 2nd column): 40 ± 0.25 µg
MIC ([6]; 1st column): 4 ± 1 µg
MIC ([6]; 2nd column): 100 ± 0.25 µg
